# Values quoted from earlier work, collected in patent publication US6783752B2, “Contrast agents” (Amersham Health AS, priority 1996, dated 2004).
# How the values were obtained:
# coronary blood flow = conditions: in vivo
# [1] = in vivo
smiles,measurement,setting,value
Nc1ncnc2c1ncn2[C@@H]1O[C@H](CO)[C@@H](O)[C@H]1O [adenosine],increase in coronary blood flow in healthy myocardial tissue,coronary blood flow,in excess of fourfold increases in coronary blood flow
same,blood pool half-life,[1],2 s
